Values quoted from earlier work, collected in patent US6462226B1, “Process for the preparation of 4,5-diamino shikimic acid derivatives” (priority 1999, dated 2002).

Tested on: viral neuraminidase
Conditions: J. C. Rohloff et al., J.Org.Chem. 63, 1998, 4545-4550; WO 98/07685

CCOC(=O)C1=C[C@@H](OC(CC)CC)[C@H](NC(C)=O)[C@@H](N)C1 [Example 1, Ethyl (3R, 4R, 5S)-4-acetamido-5-amino-3-(1-ethylpropoxy)-1-cyclohexene-1-carboxylate]
inhibition of viral neuraminidase: potent inhibitors
